We go through 13 molecules from article PMC8184751, “Proline/arginine dipeptide repeat polymers derail protein folding in amyotrophic lateral sclerosis” (Nature Communications, 2021).

“Also recorded” adds a separate entry of the source.

For experiment [1], the target named is T1, PPIA (Homo sapiens, UniProt P62937).
T1 construct: His-tag (cleaved yes); made in house; host or cells: Escherichia coli BL21(DE3)
The experiment in a line: NMR titration of 15N-labeled PPIA with dipeptide repeat polymers (1H-15N HSQC). The experiment is classed as binding. As to conditions: for Arg55 csp / Arg55 I/I0 (titration, SI Fig 2b): 40 µM 15N-PPIA; for Arg55 csp / Arg55 I/I0 (titration, SI Fig 2b) / I/I0 of the HSQC cross-peak of PPIA residue 55 (SI Fig 2a): pH 7.4, 298 K; for binding to PPIA judged from NMR signals: eightfold excess of peptide over PPIA, 1H-15N HSQC; for I/I0 of the HSQC cross-peak of PPIA residue 55 (SI Fig 2a): eightfold excess of peptide (320 µM) over 40 µM 15N-PPIA.
Method: Titration of ^15N-labeled PPIA with dipeptide repeat polymers (PR20, GR20, GP20, AP20, PR10, PR5, and PR2) were carried out in 25 mM HEPES buffer with 100 mM NaCl, 2 mM DTT, 0.01% NaN3, and 10% D20 at pH 7.4. For 40 µM protein, the ligand concentrations were increased from 0 to 320 µM in five steps. For the PPIA/GP20 and PPIA/AP20 titrations, the concentration of the repeat polymer was further increased up to 3200 µM. Two-dimensional ^15N-^1H HSQC spectra[41] were acquired at 298 K for each PPIA/repeat polymer ratio.
Kd calculations for the interactions of PPIA with PR repeats (PR5, PR10, and PR20) were made from the dipeptide repeat polymer-induced variations in PPIA cross-peak intensities, using the equation for slow exchange regime interactions:1 1−I/I0=Imax(Kd+P+x)−Kd+P+x^2−4×P×x/2P where I is the intensity of PPIA peaks in the presence of increasing ligand concentrations, I0 is the intensity of free protein, P is the total concentration of protein, x is the concentration of ligand, and Kd is the dissociation constant.
The error in 1−(I/I0) is taken to be the error in the experimental quantity of I/I0 and has been calculated from the noise in HSQC spectra according to2 σI/I0=I/I0σI0/I0^2+σ(I)/I^2 where σ(I/Io) is the error in I/I0, σ(Io) and σ(I) are the noise (RMS value of background noise from various regions) in the HSQC spectrum of PPIA alone and that of PPIA in the presence of ligand, respectively.
In case of the PPIA/GP20- and PPIA/AP20 interactions, the Kd value was calculated from the equation for fast exchange interactions using chemical shift perturbations (CSP) according to3 CSP=CSPmax(Kd+P+x)−(Kd+P+x)^2−4×P×x/2P where4 CSP=(δH)^2+δN/6.5^2
Imax and CSPmax were treated as independent free fit parameters for the residues. The error value in the Kd is the standard error of fitting.

The target in experiment [2] is T1, PPIA. The experiment in a line: PPIA-catalysed refolding of urea-unfolded RNaseT1 (tryptophan fluorescence). It is filed as biochemical. The method, then:
(§1) RNaseT1 (purchased from Thermo Fischer) was unfolded by incubating in 6.9 M urea at 10 °C for 2 h in 100 mM Tris-HCl buffer at pH 8. Refolding of RNaseT1 was initiated by diluting it 35 times with same buffer such that the final concentration of RNaseT1 was 2.27 µM and urea 0.197 M. Tryptophan fluorescence emission was measured at 320 nm (excitation wavelength = 280 nm) during refolding for 1 h on a Cary Eclipse Fluorescence Spectrophotometer at 10 °C. In experiments with PR20, PPIA, or both, they were added to the dilution buffer and incubated at 10 °C for 2 h prior to mixing. Data were normalized and averaged for graphical representation. The exponential constants, k, for the increasing fluorescence intensities were obtained from fitting a mono-exponential function to the experimental data in Graph Pad Prism.

The target of another experiment is T2, RNaseT1 (Aspergillus oryzae, UniProt P00651).
T2 construct: purchased Thermo Fischer
T2 sequence (P00651 27-130): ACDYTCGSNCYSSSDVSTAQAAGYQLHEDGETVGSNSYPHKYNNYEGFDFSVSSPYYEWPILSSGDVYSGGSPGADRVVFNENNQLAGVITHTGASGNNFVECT
The experiment in a line: Refolding of RNaseT1 without PPIA (self-folding control with PR20). It is filed as biochemical. The note with it: for exponential folding rate constant k of RNaseT1, no PPIA: Rnase T1:PR20=1:175, no CypA, same conditions. As to the method: as §1

The target in experiment [3] is PPIA. As to conditions: read-out: binding affinity to the enzyme; cited from earlier work.
The target of experiment [4] is T3, prolyl isomerase PPIA (human, UniProt P62937 2-164).
T3 construct: human PPIA (peptidyl-prolyl cis-trans isomerase A, cyclophilin A); gene cloned into a modified pET28a vector; 15N-labeled for the NMR titrations, unlabeled for ITC, crystallography and folding assays; source: E. coli BL21(DE3), purified (Ni-NTA, TEV cleavage, Superdex 75); 15N-labeled in M9 minimal media for NMR
T3 sequence (P62937 2-164): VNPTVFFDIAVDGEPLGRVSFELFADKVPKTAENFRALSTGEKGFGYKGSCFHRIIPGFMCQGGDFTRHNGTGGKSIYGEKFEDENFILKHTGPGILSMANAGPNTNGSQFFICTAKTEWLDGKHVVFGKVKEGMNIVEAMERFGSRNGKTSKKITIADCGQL
The experiment in a line: NMR titration; 40 µM 15N-labeled PPIA titrated with GP20 or AP20 up to 3200 µM; 1H-15N HSQC at 298 K; 25 mM HEPES, 100 mM NaCl, 2 mM DTT, pH 7.4; Kd from chemical shift perturbations (equation for fast exchange). As to conditions: both partners purified.

Experiment [5] deals with T3, prolyl isomerase PPIA. The experiment in a line: NMR titration; 40 µM 15N-labeled PPIA titrated with repeat polymer from 0 to 320 µM in five steps; 1H-15N HSQC at 298 K; 25 mM HEPES, 100 mM NaCl, 2 mM DTT, pH 7.4; Kd from the attenuation of the cross-peak of Arg55 (equation for slow exchange). The note with it: both partners purified.
The target of experiment [6] is T3, prolyl isomerase PPIA. The experiment in a line: ITC; 44 µM PPIA in the cell titrated with 650 µM PR20 in the syringe; 10 °C; 25 mM HEPES, 100 mM NaCl, 1 mM TCEP, pH 7.4; number of binding sites fixed to one. The note with it: both partners purified. For orientation: Isothermal titration calorimetry measures the heat released or taken up as one component is titrated into another.

T1 sequence (P62937 whole entry): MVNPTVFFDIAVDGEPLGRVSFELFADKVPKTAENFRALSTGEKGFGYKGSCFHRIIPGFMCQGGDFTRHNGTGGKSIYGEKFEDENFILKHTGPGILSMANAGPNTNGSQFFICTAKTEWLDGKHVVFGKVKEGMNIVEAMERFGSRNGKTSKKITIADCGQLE

Regarding “Ac-GPGPGPGPGPGPGPGPGPGPGPGPGPGPGPGPGPGPGPGP-NH2 [GP20]”, the Arg55 csp at PPIA [1] (peptide conc. 32 uM) is recorded as 0.002383; on PPIA [1] (peptide conc. 96 uM), 0.006761; at PPIA [1] (peptide conc. 160 uM) it was 0.01147; on PPIA [1] (peptide conc. 320 uM) it was 0.01968; at PPIA [1] (peptide conc. 640 uM), 0.034; at PPIA [1] (peptide conc. 1280 uM), 0.04768. Also, the Arg55 csp on PPIA [1] (peptide conc. 2560 uM) is reported as 0.06404; on PPIA [1] (peptide conc. 3200 uM), 0.07024.
For “GR20: 20-dipeptide glycine/arginine repeat polymer, acetylated and amidated termini”, the “binding to PPIA judged from NMR signals” value in the experiment with PPIA [1] is reported as “does not bind to PPIA”. Besides, the “Arg55 I/I0 (titration, SI Fig 2b)” value in the experiment with PPIA [1] (ligand conc 9.6 uM) was 0.0912; with PPIA [1] (ligand conc 32 uM), 0.0182; in the experiment with PPIA [1] (ligand conc 96 uM) it was -0.00762; with PPIA [1] (ligand conc 160 uM), 0.124; in the experiment with PPIA [1] (ligand conc 320 uM) it was -0.0665.
As for “Ac-APAPAPAPAPAPAPAPAPAPAPAPAPAPAPAPAPAPAPAP-NH2 [AP20]”, the Arg55 csp on PPIA [1] (peptide conc. 32 uM) is on record as 0.009725; on PPIA [1] (peptide conc. 160 uM), 0.03975; on PPIA [1] (peptide conc. 320 uM) it was 0.06372; at PPIA [1] (peptide conc. 640 uM) it was 0.09595; on PPIA [1] (peptide conc. 1280 uM), 0.1279; on PPIA [1] (peptide conc. 3200 uM), 0.1597.
For “Ac-PRPRPRPRPRPRPRPRPRPRPRPRPRPRPRPRPRPRPRPR-NH2 [PR20]”, the “exponential folding rate constant k of RNaseT1” value on PPIA [2] (Rnase T1:CypA:PR20=1:0.033:7, 2.27 µM RNaseT1, 100 mM Tris-HCl pH 8, 10 °C, fluorescence 320 nm, mono-exponential fit, independent experiment 1 of 3) was 0.2834; at PPIA [2] (Rnase T1:CypA:PR20=1:0.033:7, same conditions, independent experiment 2 of 3), 0.2936; on PPIA [2] (Rnase T1:CypA:PR20=1:0.033:7, same conditions, independent experiment 3 of 3) it was 0.3078; on PPIA [2] (Rnase T1:CypA:PR20=1:0.033:20, 2.27 µM RNaseT1, pH 8, 10 °C, mono-exponential fit, independent experiment 1 of 3), 0.2235; at PPIA [2] (Rnase T1:CypA:PR20=1:0.033:20, same conditions, independent experiment 2 of 3) it was 0.3061; at PPIA [2] (Rnase T1:CypA:PR20=1:0.033:20, same conditions, independent experiment 3 of 3), 0.2847. The “exponential folding rate constant k of RNaseT1” value is 0.2129 at PPIA [2] (Rnase T1:CypA:PR20=1:0.033:46, 2.27 µM RNaseT1, pH 8, 10 °C, mono-exponential fit, independent experiment 1 of 3); 0.2303 on PPIA [2] (Rnase T1:CypA:PR20=1:0.033:46, same conditions, independent experiment 2 of 3); 0.2811 at PPIA [2] (Rnase T1:CypA:PR20=1:0.033:46, same conditions, independent experiment 3 of 3); 0.1927 at PPIA [2] (Rnase T1:CypA:PR20=1:0.033:175, 2.27 µM RNaseT1, pH 8, 10 °C, mono-exponential fit, independent experiment 1 of 3); 0.1913 on PPIA [2] (Rnase T1:CypA:PR20=1:0.033:175, same conditions, independent experiment 2 of 3); 0.202 at PPIA [2] (Rnase T1:CypA:PR20=1:0.033:175, same conditions, independent experiment 3 of 3). On PPIA [2] (increasing PR20: 7, 20, 46, 175 times excess over RNaseT1), the “effect on the catalyzing effect of PPIA on RNaseT1 folding” value is reported as “inhibited the catalyzing effect of PPIA in a dose-dependent manner”. For the same molecule, the “exponential folding rate constant k of RNaseT1, no PPIA” value at RNaseT1 (independent experiment 2 of 3) and on RNaseT1 (independent experiment 3 of 3) was 0.1365 in each case. The “refolding kinetics of RNaseT1 in the presence of PR20, no PPIA” value at RNaseT1 (large excess of PR20, 10 °C, pH 8) is on record as “unchanged”. On PPIA [1], the “I/I0 of the HSQC cross-peak of PPIA residue 55 (SI Fig 2a)” value is -0.02438. Besides, the “Arg55 I/I0 (titration, SI Fig 2b)” value turned out to be 0.211 on PPIA [1] (ligand conc 9.6 uM); 0.472 at PPIA [1] (ligand conc 32 uM); 0.746 at PPIA [1] (ligand conc 96 uM); 0.931 at PPIA [1] (ligand conc 160 uM); 1.02 on PPIA [1] (ligand conc 320 uM).
With “PR2: two PR dipeptides, the four-residue peptide, acetylated and amidated termini (Ac-PRPR-NH2)”, in the experiment with PPIA [1], the “I/I0 of the HSQC cross-peak of PPIA residue 55 (SI Fig 2a)” value amounted to 0.9376 and the “binding to PPIA judged from NMR signals” value was “does not efficiently bind; also recorded: abrogated the binding to PPIA”.
On to cyclosporin A, for which the Kd on PPIA [3] was 0.013 ± 0.004 µM.
With Ac-PRPRPRPRPR-NH2 [PR5], at PPIA [1], the Kd was determined as 48.5 µM and the “I/I0 of the HSQC cross-peak of PPIA residue 55 (SI Fig 2a)” value amounted to 0.1037.
For the molecule Ac-PRPRPRPRPRPRPRPRPRPR-NH2 [PR10], on PPIA [1], the Kd came to 27.1 µM and the “I/I0 of the HSQC cross-peak of PPIA residue 55 (SI Fig 2a)” value worked out at 0.1506.

B1: dipeptide repeat polymer AP20 (peptide)
peptide: Ac-APAPAPAPAPAPAPAPAPAPAPAPAPAPAPAPAPAPAPAP-NH2
notes: also called alanine/proline repeat polymer; source: synthetic peptide (solid-phase peptide synthesis)
In the case of B1, in the experiment with prolyl isomerase PPIA [4], the Kd came to 597 µM.

B2: dipeptide repeat polymer GP20 (peptide)
peptide: Ac-GPGPGPGPGPGPGPGPGPGPGPGPGPGPGPGPGPGPGPGP-NH2
notes: also called glycine/proline repeat polymer; source: synthetic peptide (solid-phase peptide synthesis)
As to B2, the Kd with prolyl isomerase PPIA [4] came out at 1190 µM.

B3: PR repeat polymer with five PR dipeptides (PR5) (peptide)
peptide: Ac-PRPRPRPRPR-NH2
notes: source: synthetic peptide (solid-phase peptide synthesis)
The molecule B3 came in with a Kd with prolyl isomerase PPIA [5] of 49 µM.

B4: PR repeat polymer with ten PR dipeptides (PR10) (peptide)
peptide: Ac-PRPRPRPRPRPRPRPRPRPR-NH2
notes: as for B3
Turning to B4, the Kd with prolyl isomerase PPIA [5] turned out to be 27 µM.

B5: PR repeat polymer with 20 repeats (PR20) (peptide)
peptide: Ac-PRPRPRPRPRPRPRPRPRPRPRPRPRPRPRPRPRPRPRPR-NH2
notes: dipeptide repeat polymer translated from the C9orf72 hexanucleotide repeat expansion; Only eight residues of the polymer could be built in the asymmetric unit of PDB 7ABT; also called 20-dipeptide polymer PR20; 20-repeat PR polymer; source: synthetic peptide (solid-phase peptide synthesis)
B5: the figures for the Kd with prolyl isomerase PPIA [6] and in the experiment with prolyl isomerase PPIA [5] were about 50 µM and 23 µM, respectively.
